According to ChEMBL document CHEMBL1201862, “PubChem BioAssay data set” (2004):
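How tested: cells in 96-well plates exposed to compound for 48 hours at five concentrations. GI50 marks 50% less growth.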 Active and inactive are the calls of the source. Rule as the data show it: active = GI50 up to about 1.1 µM and inactive = higher.

What was measured:
Test in all cases: DTP human tumour cell line panel, 48 h
CAKI-1 = tested on: CAKI-1
HOP-92 = tested on: HOP-92
EKVX = tested on: EKVX
HCT-116 = tested on: HCT-116
Malme-3M = tested on: Malme-3M
M14 = tested on: M14
ACHN = tested on: ACHN
NCI-H460 = tested on: NCI-H460
U-251 = tested on: U-251
SNB-75 = tested on: SNB-75
SK-MEL-5 = tested on: SK-MEL-5
UO-31 = tested on: UO-31
786-0 = tested on: 786-0
SN12C = tested on: SN12C
SW-620 = tested on: SW-620
HCC 2998 = tested on: HCC 2998
MOLT-4 = tested on: MOLT-4
K562 = tested on: K562

| Compound | GI50 (CAKI-1) | GI50 (HOP-92) | GI50 (EKVX) | GI50 (HCT-116) | GI50 (Malme-3M) | GI50 (M14) | GI50 (ACHN) | GI50 (NCI-H460) | GI50 (U-251) | GI50 (SNB-75) | GI50 (SK-MEL-5) | GI50 (UO-31) | GI50 (786-0) | GI50 (SN12C) | GI50 (SW-620) | GI50 (HCC 2998) | GI50 (MOLT-4) | GI50 (K562) |
| --- | --- | --- | --- | --- | --- | --- | --- | --- | --- | --- | --- | --- | --- | --- | --- | --- | --- | --- |
| Cn1cnc([N+](=O)[O-])c1Sc1nc2cccnc2s1 | 7.93 µM (inactive) | 18.5 µM (inactive) | 17.5 µM (inactive) | 16 µM (inactive) | 10.1 µM (inactive) | 13.7 µM (inactive) | 24.5 µM (inactive) | 34.1 µM (inactive) | 24 µM (inactive) | 25.2 µM (inactive) | 19.7 µM (inactive) | 17.1 µM (inactive) | 14.5 µM (inactive) | 17.8 µM (inactive) | 12 µM (inactive) | 16.7 µM (inactive) | 10.4 µM (inactive) | – |
| CN(C)C1(C#N)CCC2(CC1)OCCO2 | > 100 µM (inactive) | > 100 µM (inactive) | > 100 µM (inactive) | > 100 µM (inactive) | > 100 µM (inactive) | > 100 µM (inactive) | > 100 µM (inactive) | > 100 µM (inactive) | > 100 µM (inactive) | > 100 µM (inactive) | > 100 µM (inactive) | > 100 µM (inactive) | > 100 µM (inactive) | > 100 µM (inactive) | > 100 µM (inactive) | > 100 µM (inactive) | > 100 µM (inactive) | > 100 µM (inactive) |
| C=Cc1cncc(C#N)c1CCc1c(C#N)cncc1C=C | 63.2 µM (inactive) | > 10 µM (inactive) | 49 µM (inactive) | > 10 µM (inactive) | > 10 µM (inactive) | > 10 µM (inactive) | > 10 µM (inactive) | > 10 µM (inactive) | > 10 µM (inactive) | > 10 µM (inactive) | > 10 µM (inactive) | > 10 µM (inactive) | > 10 µM (inactive) | > 10 µM (inactive) | > 10 µM (inactive) | > 10 µM (inactive) | > 10 µM (inactive) | > 10 µM (inactive) |
| CN[C@H](C)[C@@H](OC)c1ccccc1 | > 100 µM (inactive) | > 100 µM (inactive) | > 100 µM (inactive) | > 100 µM (inactive) | > 100 µM (inactive) | > 100 µM (inactive) | > 100 µM (inactive) | > 100 µM (inactive) | > 100 µM (inactive) | 61.4 µM (inactive) | > 100 µM (inactive) | > 100 µM (inactive) | > 100 µM (inactive) | > 100 µM (inactive) | > 100 µM (inactive) | > 100 µM (inactive) | > 100 µM (inactive) | > 100 µM (inactive) |
| CC(=O)NC(CCCCNCc1ccccc1)C(=O)NCc1ccccc1 (stereo not given) | > 100 µM (inactive) | > 100 µM (inactive) | > 100 µM (inactive) | > 100 µM (inactive) | > 100 µM (inactive) | > 100 µM (inactive) | > 100 µM (inactive) | > 100 µM (inactive) | > 100 µM (inactive) | 30.5 µM (inactive) | > 100 µM (inactive) | > 100 µM (inactive) | > 100 µM (inactive) | > 100 µM (inactive) | > 100 µM (inactive) | > 100 µM (inactive) | > 100 µM (inactive) | > 100 µM (inactive) |
| COC1=CC(=O)C2C(C1=O)[C@@H]1c3ccccc3OC[C@H]21 (stereo not given in full) | > 100 µM (inactive) | > 100 µM (inactive) | > 100 µM (inactive) | > 100 µM (inactive) | > 100 µM (inactive) | > 100 µM (inactive) | > 100 µM (inactive) | > 100 µM (inactive) | > 100 µM (inactive) | > 100 µM (inactive) | > 100 µM (inactive) | > 100 µM (inactive) | > 100 µM (inactive) | – | > 100 µM (inactive) | > 100 µM (inactive) | > 100 µM (inactive) | > 100 µM (inactive) |
| CC1C(=O)CCC1C(Sc1ccccc1)(Sc1ccccc1)Sc1ccccc1 (stereo not given) | 16.9 µM (inactive) | 8.43 µM (inactive) | 55.6 µM (inactive) | 16.1 µM (inactive) | 37.1 µM (inactive) | 25 µM (inactive) | 19.9 µM (inactive) | 41.4 µM (inactive) | 33.8 µM (inactive) | 17.1 µM (inactive) | 16.9 µM (inactive) | 1.32 µM (inactive) | 22.5 µM (inactive) | 21.1 µM (inactive) | 27 µM (inactive) | 20.8 µM (inactive) | 4.73 µM (inactive) | 20.5 µM (inactive) |
| CC(=O)OC1(C#N)CC2OC1C1NC21 (stereo not given) | > 100 µM (inactive) | > 100 µM (inactive) | > 100 µM (inactive) | > 100 µM (inactive) | > 100 µM (inactive) | > 100 µM (inactive) | > 100 µM (inactive) | > 100 µM (inactive) | > 100 µM (inactive) | > 100 µM (inactive) | > 100 µM (inactive) | > 100 µM (inactive) | > 100 µM (inactive) | > 100 µM (inactive) | > 100 µM (inactive) | > 100 µM (inactive) | > 100 µM (inactive) | > 100 µM (inactive) |
| N=C(N)NS(=O)(=O)c1ccc(NCc2c3ccccc3[n+]([O-])c3ccccc23)cc1 | 21.3 µM (inactive) | 0.394 µM (active) | > 100 µM (inactive) | 8.11 µM (inactive) | 20 µM (inactive) | 46.6 µM (inactive) | 17 µM (inactive) | 3.43 µM (inactive) | 16.6 µM (inactive) | 13.5 µM (inactive) | 14 µM (inactive) | 15.2 µM (inactive) | 19.7 µM (inactive) | 15 µM (inactive) | 16.4 µM (inactive) | 13.4 µM (inactive) | 1.94 µM (inactive) | 25.7 µM (inactive) |
| N#CC(C(=N/O)/C(=N/O)C(C#N)c1ccc(Cl)cc1)c1ccc(Cl)cc1 (stereo not given) | 42.9 µM (inactive) | > 100 µM (inactive) | > 100 µM (inactive) | > 100 µM (inactive) | > 100 µM (inactive) | > 100 µM (inactive) | > 100 µM (inactive) | > 100 µM (inactive) | > 100 µM (inactive) | 42 µM (inactive) | – | > 100 µM (inactive) | > 100 µM (inactive) | > 100 µM (inactive) | 76.7 µM (inactive) | 84.1 µM (inactive) | – | – |
| CCc1ccccc1NC(=O)C1=C(C)NC(C)=C(C(=O)Nc2ccccc2CC)C1c1ccc2c(c1)OCO2 | 25.2 µM (inactive) | 13.6 µM (inactive) | 31.3 µM (inactive) | – | 25.3 µM (inactive) | 26.2 µM (inactive) | 22.8 µM (inactive) | 34.1 µM (inactive) | 26.9 µM (inactive) | 23.7 µM (inactive) | 23.2 µM (inactive) | 18.5 µM (inactive) | 30.4 µM (inactive) | 41.2 µM (inactive) | 28.9 µM (inactive) | 15.1 µM (inactive) | 15.4 µM (inactive) | 26.5 µM (inactive) |
| CN(C)c1[se]nc2c1c(=O)n(C)c(=O)n2C | > 100 µM (inactive) | > 100 µM (inactive) | > 100 µM (inactive) | > 100 µM (inactive) | > 100 µM (inactive) | – | > 100 µM (inactive) | > 100 µM (inactive) | > 100 µM (inactive) | 58.5 µM (inactive) | > 100 µM (inactive) | > 100 µM (inactive) | > 100 µM (inactive) | > 100 µM (inactive) | > 100 µM (inactive) | > 100 µM (inactive) | > 100 µM (inactive) | > 100 µM (inactive) |
| O=C(CCc1nnc2s/c(=C\c3ccccc3[N+](=O)[O-])c(=O)n12)Nc1cc(Cl)c(Cl)cc1Cl | – | 18.7 µM (inactive) | 37.9 µM (inactive) | 17.5 µM (inactive) | 48.2 µM (inactive) | 32.5 µM (inactive) | 35.8 µM (inactive) | 27.4 µM (inactive) | 16.9 µM (inactive) | 20.5 µM (inactive) | 34.1 µM (inactive) | 31.6 µM (inactive) | 17.1 µM (inactive) | 24.6 µM (inactive) | > 10 µM (inactive) | 38.5 µM (inactive) | 21 µM (inactive) | 22 µM (inactive) |
| Cc1ccc(S(=O)(=O)NC2CCCCO2)cc1 (stereo not given) | > 100 µM (inactive) | > 100 µM (inactive) | > 100 µM (inactive) | > 100 µM (inactive) | > 100 µM (inactive) | > 100 µM (inactive) | > 100 µM (inactive) | > 100 µM (inactive) | > 100 µM (inactive) | > 100 µM (inactive) | > 100 µM (inactive) | > 100 µM (inactive) | > 100 µM (inactive) | > 100 µM (inactive) | > 100 µM (inactive) | > 100 µM (inactive) | > 100 µM (inactive) | > 100 µM (inactive) |
| CCC1(CN(C)C)CC/C(=C\c2ccc(OC)c(OC)c2)C1=O (stereo not given) | 74.5 µM (inactive) | > 100 µM (inactive) | > 54.6 µM (inactive) | > 74.5 µM (inactive) | > 100 µM (inactive) | > 100 µM (inactive) | > 100 µM (inactive) | > 100 µM (inactive) | > 100 µM (inactive) | > 67.8 µM (inactive) | > 74.3 µM (inactive) | > 100 µM (inactive) | > 100 µM (inactive) | > 100 µM (inactive) | > 100 µM (inactive) | > 100 µM (inactive) | 40.2 µM (inactive) | 57.4 µM (inactive) |
| Cc1ccc(C)c(NC(=O)c2cccc([N+](=O)[O-])c2O)c1 | 30.8 µM (inactive) | 12.7 µM (inactive) | 29.5 µM (inactive) | 23.1 µM (inactive) | 17.8 µM (inactive) | 55.6 µM (inactive) | 15.1 µM (inactive) | 20.9 µM (inactive) | 23.9 µM (inactive) | 20.4 µM (inactive) | 5.9 µM (inactive) | 16.5 µM (inactive) | 44.1 µM (inactive) | 27.2 µM (inactive) | 37.6 µM (inactive) | 28.3 µM (inactive) | 20.3 µM (inactive) | > 100 µM (inactive) |
